Experimental data reported in US4426389A, “Derivatives of clavulanic acid, a process for their preparation and their use” (Beecham Group Limited, priority 1979, dated 1984).
Converted amounts (≈) assume the structure as drawn.

Key:
Type in all cases: cell-based
Staph. aureus Russell [1] = assay: MIC by standard microtitre technique (dilution in tryptone soy broth), Staph. aureus Russell; conditions: Staphylococcus aureus, alone
Method: (§1) By a standard microtitre technique the MIC values for ampicillin alone, ampicillin and 9-N-(2'-cyanoethyl)aminodeoxyclavulanic acid and 9-N-(2'-cyanoethyl)aminodeoxyclavulanic acid alone were determined.
(§2) MIC μg/ml (dilution in tryptone soy broth)

Kleb. aerogenes E70 = assay: MIC by standard microtitre technique (dilution in tryptone soy broth), Kleb. aerogenes E70; conditions: Klebsiella aerogenes, alone
E. coli JT39 = assay: MIC by standard microtitre technique (dilution in tryptone soy broth), E. coli JT39; conditions: Escherichia coli, alone
Method: as §1, §2

Staph. aureus Oxford = assay: Antibacterial activity, MIC, Staph. aureus Oxford; conditions: Staphylococcus aureus
From the text: (§3) Antibacterial activity of 9-N-(2'-cyanoethyl)aminodeoxyclavulanic acid, MIC μg/ml.

Staph. aureus Russell [2] = assay: Antibacterial activity, MIC, Staph. aureus Russell; conditions: Staphylococcus aureus
From the text: as §3

Strep. Pyogenes = assay: Antibacterial activity, MIC, Strep. Pyogenes; conditions: Streptococcus pyogenes
From the text: as §3

Strep. Pneumoniae = assay: Antibacterial activity, MIC, Strep. Pneumoniae; conditions: Streptococcus pneumoniae
From the text: as §3

Structure (SMILES) | MIC (Staph. aureus Russell [1]) [µg/mL] | MIC (Kleb. aerogenes E70) [µg/mL] | MIC (E. coli JT39) [µg/mL] | MIC (Staph. aureus Oxford) [µg/mL] | MIC (Staph. aureus Russell [2]) [µg/mL] | MIC (Strep. Pyogenes) [µg/mL] | MIC (Strep. Pneumoniae) [µg/mL]
N#CCCNC/C=C1\O[C@@H]2CC(=O)N2[C@H]1C(=O)O [9-N-(2'-Cyanoethyl)aminodeoxyclavulanic acid] | 16 (≈ 63.7 µM) | 250 (≈ 995 µM) | 31 (≈ 123 µM) | 10 to 20 (≈ 39.8 to 79.6 µM) | 10 to 20 (≈ 39.8 to 79.6 µM) | 10 (≈ 39.8 µM) | 5 (≈ 19.9 µM)
CC1(C)S[C@@H]2[C@H](NC(=O)[C@H](N)c3ccccc3)C(=O)N2[C@H]1C(=O)O [Ampicillin, ampicillin, reference compound] | 500 to 1000 (≈ 1430 to 2860 µM) | 500 to 1000 (≈ 1430 to 2860 µM) |  |  |  |  | 
